# Columns and labels:
# Karpas-422 cell lines = experiment: Karpas-422 viability assay (Cell Titer-Glo, Day 8); assay type: cell-based; settings: Homo sapiens, KARPAS-422, 192 h, Cell Titer-Glo on Day 8
# Description: Karpas-422 cell lines were obtained from DSMZ (Braunschweig, Germany) and were grown in RPMI-1640 media. All media contained 10% fetal bovine serum (FBS) and 1% penicillin/streptomycin (Invitrogen). 20K cells per well were plated onto 96 well compound coated plates. Cells were split and seeded at original plating density (based on the DMSO well counts) every 4 days into plates containing fresh EZH2 inhibitors. Relative cell numbers were assessed by Cell Titer-Glo luminescent cell viability assay (Promega) on Day 8. GraphPad Prism 5 was used for curve fitting and GI50 values were reported.
# PRC2 containing wt EZH2 [1] = molecular target: T1, PRC2 containing wt EZH2 (Homo sapiens (Human), UniProt Q15910); experiment: EZH2 residence time assay (100-fold dilution of enzyme-inhibitor complex); assay type: biochemical; settings: recovery of enzyme activity after 100-fold dilution; read-out: EZH2 residence time (converted)
# T1 sequence (Q15910 whole entry): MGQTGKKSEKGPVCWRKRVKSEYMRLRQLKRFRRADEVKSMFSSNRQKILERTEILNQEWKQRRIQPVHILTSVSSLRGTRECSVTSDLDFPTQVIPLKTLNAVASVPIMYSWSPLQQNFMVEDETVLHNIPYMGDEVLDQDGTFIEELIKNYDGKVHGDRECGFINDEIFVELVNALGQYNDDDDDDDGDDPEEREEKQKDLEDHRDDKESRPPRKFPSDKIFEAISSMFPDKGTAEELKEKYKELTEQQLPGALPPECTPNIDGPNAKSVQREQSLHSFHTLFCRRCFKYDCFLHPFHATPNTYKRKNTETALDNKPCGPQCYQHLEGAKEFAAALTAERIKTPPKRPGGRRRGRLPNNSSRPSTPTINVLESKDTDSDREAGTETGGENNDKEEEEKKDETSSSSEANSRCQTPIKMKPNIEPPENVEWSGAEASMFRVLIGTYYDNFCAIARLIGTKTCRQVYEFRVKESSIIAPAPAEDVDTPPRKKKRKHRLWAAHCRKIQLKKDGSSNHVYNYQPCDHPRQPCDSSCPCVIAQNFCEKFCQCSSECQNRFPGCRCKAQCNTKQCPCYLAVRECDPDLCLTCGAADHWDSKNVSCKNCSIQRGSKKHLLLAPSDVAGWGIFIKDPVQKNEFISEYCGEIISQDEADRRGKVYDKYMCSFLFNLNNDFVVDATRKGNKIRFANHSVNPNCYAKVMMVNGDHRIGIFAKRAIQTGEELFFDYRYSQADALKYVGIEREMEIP
# T1 sequence (O75530 whole entry partner): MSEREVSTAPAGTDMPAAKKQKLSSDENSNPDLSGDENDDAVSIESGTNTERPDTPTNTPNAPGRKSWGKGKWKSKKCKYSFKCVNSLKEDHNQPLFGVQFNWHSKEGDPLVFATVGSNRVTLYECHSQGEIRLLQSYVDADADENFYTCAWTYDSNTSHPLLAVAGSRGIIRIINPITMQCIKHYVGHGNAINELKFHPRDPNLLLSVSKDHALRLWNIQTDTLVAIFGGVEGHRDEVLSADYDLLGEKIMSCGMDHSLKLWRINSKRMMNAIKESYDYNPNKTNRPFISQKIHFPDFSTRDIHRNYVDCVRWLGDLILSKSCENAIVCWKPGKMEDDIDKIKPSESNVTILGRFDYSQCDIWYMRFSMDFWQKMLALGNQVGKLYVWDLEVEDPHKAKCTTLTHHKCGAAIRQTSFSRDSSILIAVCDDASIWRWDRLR
# T1 sequence (Q15022 whole entry partner): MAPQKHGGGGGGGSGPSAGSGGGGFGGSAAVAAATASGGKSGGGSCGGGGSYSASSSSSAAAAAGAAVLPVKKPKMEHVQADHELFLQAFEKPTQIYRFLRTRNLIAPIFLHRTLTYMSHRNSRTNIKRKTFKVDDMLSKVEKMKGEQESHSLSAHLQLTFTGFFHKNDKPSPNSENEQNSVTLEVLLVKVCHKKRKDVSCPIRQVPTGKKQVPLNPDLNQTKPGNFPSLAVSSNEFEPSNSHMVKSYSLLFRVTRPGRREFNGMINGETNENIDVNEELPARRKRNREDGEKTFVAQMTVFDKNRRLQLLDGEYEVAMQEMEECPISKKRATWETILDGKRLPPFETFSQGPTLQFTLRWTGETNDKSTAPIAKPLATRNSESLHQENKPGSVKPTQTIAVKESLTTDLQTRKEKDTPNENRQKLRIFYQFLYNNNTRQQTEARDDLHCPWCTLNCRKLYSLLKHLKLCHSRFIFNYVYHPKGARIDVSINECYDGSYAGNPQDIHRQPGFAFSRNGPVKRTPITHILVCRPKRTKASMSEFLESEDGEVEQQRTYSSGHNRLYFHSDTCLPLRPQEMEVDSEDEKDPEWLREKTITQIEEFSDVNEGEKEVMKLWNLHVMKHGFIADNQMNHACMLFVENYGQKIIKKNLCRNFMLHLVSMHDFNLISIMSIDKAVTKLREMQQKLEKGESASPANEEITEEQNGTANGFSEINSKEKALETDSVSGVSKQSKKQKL
# T1 sequence (Q09028 whole entry partner): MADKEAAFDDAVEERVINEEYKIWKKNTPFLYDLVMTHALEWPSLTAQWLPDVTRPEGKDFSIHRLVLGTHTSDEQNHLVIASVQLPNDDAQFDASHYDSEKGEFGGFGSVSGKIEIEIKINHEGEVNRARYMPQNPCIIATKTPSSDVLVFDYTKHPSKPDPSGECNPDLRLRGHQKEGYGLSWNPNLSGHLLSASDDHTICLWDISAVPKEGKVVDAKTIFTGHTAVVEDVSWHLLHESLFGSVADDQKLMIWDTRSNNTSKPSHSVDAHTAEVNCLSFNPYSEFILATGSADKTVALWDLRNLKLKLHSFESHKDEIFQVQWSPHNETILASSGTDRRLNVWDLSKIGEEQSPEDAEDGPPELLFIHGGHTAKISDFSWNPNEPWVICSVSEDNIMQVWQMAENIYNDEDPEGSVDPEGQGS
# T1 sequence (Q6ZN18 whole entry partner): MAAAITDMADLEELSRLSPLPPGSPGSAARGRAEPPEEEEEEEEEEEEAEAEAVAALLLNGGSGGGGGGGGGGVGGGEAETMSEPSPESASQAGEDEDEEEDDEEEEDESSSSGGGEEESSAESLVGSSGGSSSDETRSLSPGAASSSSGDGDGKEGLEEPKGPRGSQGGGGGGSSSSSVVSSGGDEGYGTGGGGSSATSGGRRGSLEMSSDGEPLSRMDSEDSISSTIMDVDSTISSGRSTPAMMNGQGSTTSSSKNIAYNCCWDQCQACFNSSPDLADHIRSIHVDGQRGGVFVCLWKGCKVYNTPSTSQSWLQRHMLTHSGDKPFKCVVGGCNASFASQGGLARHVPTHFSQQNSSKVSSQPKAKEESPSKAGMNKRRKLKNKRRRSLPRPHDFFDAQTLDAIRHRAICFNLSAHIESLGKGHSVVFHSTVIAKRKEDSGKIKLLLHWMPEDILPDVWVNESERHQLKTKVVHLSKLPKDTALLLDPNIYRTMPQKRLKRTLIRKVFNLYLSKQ
# Description: EZH2 residence time assay: Compound residence times were assessed by monitoring the recovery of enzyme activity following a 100-fold dilution of pre-formed enzyme-inhibitor complex (dilution reaction), and comparing it to the activity of an undiluted control with the same final concentrations of all reagents (control reaction). Enzyme activity was measured by incorporation of ^3H-SAM into a biotinylated H3 peptide. For the dilution reaction, 20 nM PRC2 containing wt EZH2 (pentameric complex prepared in-house) was pre-incubated with 1 μM activating peptide (H2N-RKQLATKAAR(Kme3)SAPATGGVKKP-amide) and compound at 600 times its Ki for 2 h in 40 μL of buffer (50 mM Tris pH 8.5, 4 mM DTT, 1 mM MgCl2, 0.07 mM Brij-35, and 0.1 mg/mL BSA), then diluted 100-fold and the reaction initiated by transferring 1.4 μL to a 138.6 μL volume of buffer containing 1 μM activating peptide, 5.05 μM substrate peptide (H2N-[…]-NTPEGbiot), 1.01 μM SAM, and 1.01 μM ^3H-SAM. […] Reactions were quenched at various time points spanning up to 10 hours, by transferring 8μL aliquots from the reaction vessel to a plate containing 8μL per well of STOP solution (50 mM Tris pH 8.5, 200 mM EDTA, 2 mM SAH). After the last time point, 12 μL of the quenched solutions were transferred to a streptavidin coated FlashPlate (PerkinElmer) containing 40 μL per well of STOP solution, incubated 1-8 h, washed, and read in a TopCount plate reader (PerkinElmer).
# A custom script was used to fit control reaction progress data to a straight line and dilution reaction progress data:
# [formula] Where y is the product formed, t is the reaction time, vi is the initial velocity, vs is the steady state velocity, and kobs is the rate constant for the transition from the initial velocity phase of the curve to the steady state velocity phase of the curve. In fitting the dilution reaction progress data, vs was constrained to the slope of the line fitted to the control reaction progress data. The fitted value of kobs was then transformed into residence time:
# [formula] Where τ is residence time, Ki is the inhibition constant, [EI] is the calculated equilibrium concentration of enzyme-inhibitor complex, [E] is the calculated equilibrium concentration of free enzyme, and [I] is the calculated equilibrium concentration of free inhibitor.
# PRC2 containing wt EZH2 [2] = molecular target: T1, PRC2 containing wt EZH2; experiment: EZH2 biochemical assay (IC50), 3H-SAM incorporation into biotinylated H3 peptide; settings: 30 pM PRC2 with wt EZH2, 3-5 h pre-incubation
# Description: EZH2 biochemical assay (IC50): Compound potencies were assessed through incorporation of ^3H-SAM into a biotinylated H3 peptide. Specifically, 30 pM PRC2 containing wt EZH2 (pentameric complex prepared in-house) was pre-incubated with 450 nM SAM, 450 nM ^3H-SAM, 2 μM H3K27me3 activating peptide (H2N-RKQLATKAAR(Kme3)SAPATGGVKKP-amide) and compounds (as 10 point duplicate dose response titrations in DMSO, final assay 0.8% DMSO (v/v)) for 3-5 h in 50 mM Tris (pH 8.5), 1 mM DTT, 0.07 mM Brij-35, 0.1% BSA, and 0.8% DMSO in a total volume of 12.5 μl. Reaction was initiated with biotinylated H3 substrate peptide (H2N-RKQLATKAAR(Kmel)SAPATGGVKKP-NTPEGBiot) as a 2 μM stock in 12.5 μl of buffer and allowed to react at room temperature for 18-22 h. Quenching was accomplished by addition of 20 μl of STOP solution (50 mM Tris (pH 8.5), 200 mM EDTA, 2 mM SAH). 35 μl of the quenched solution was transferred to streptavidin coated FlashPlates (PerkinElmer), incubated 1-2 h, washed, and read in a TopCount Reader (PerkinElmer). IC50s were calculated in Genedata Screener using non-linear least square four parameter fits, where the four parameters were IC50, Hill slope, pre-transitional baseline (0% INH), and post-transitional baseline (100% INH).
# [3] = Cellular permeability in MDCK assay; assay type: in vitro ADME; settings: dog, pH 7.4, MDCK II, with P-gp inhibitor GF120918 10 μM; for efflux ratio at 2.5 h, 2 μM: Papp(BA)/Papp(AB)
# Description: Cell culture: MDCK II cells (obtained from Piet Borst at the Netherlands Cancer Institute) were seeded onto […] (PET) in 96-well BD insert systems at 2.5×10^5 cells/mL until to 4-7 days for confluent cell monolayer formation.
# Experimental procedure: Test and reference compounds (nadolol, metoprolol and digoxin) were diluted with transport buffer (HBSS with 10mM Hepes, pH7.4) from stock solution to a concentration of 2 μM (<1% DMSO) and applied to the apical (A) or basolateral (B) side of the cell monolayer. Permeation of the test compounds from A to B direction or B to A direction was determined in duplicate with P-gp inhibitor (GF120918, 10 μM). Digoxin was tested at 10 μM from A to B direction or B to A direction with/without P-gp inhibitor (GF120918, 10 μM) as well, while nadolol and metoprolol were tested at 2 μM in A to B direction without P-gp inhibitor (GF120918, 10 μM) in duplicate. The plate was incubated for 2.5 hours in CO2 incubator at 37±1° C., with 5% CO2 at saturated humidity without shaking. In addition, the efflux ratio of each compound was also determined. Test and reference compounds were quantified by LC/MS/MS analysis based on the peak area ratio of analyte/IS. After transport assay, Lucifer yellow rejection assay are applied to determine the cell monolayer integrity. Buffers are removed from both apical and basolateral chambers, followed by the addition of 75 μL of 100 μM lucifer yellow in transport buffer and 250 μL transport buffer in apical and basolateral chambers, respectively. The plate is incubated for 30 minutes at 37° C. with 5% CO2 and 95% relative humidity without shaking. After 30 minutes incubation, 20 μL of lucifer yellow samples are taken from the apical sides, followed by the addition of 60 μL of Transport Buffer. And then 80 μL of lucifer yellow samples are taken from the basolateral sides. The relative fluorescence unit (RFU) of lucifer yellow is measured at 425/528 nm (excitation/emission) with a Molecular Device M2e plate reader.
# Data analysis: The apparent permeability coefficient Papp (cm/s) was calculated using the equation: Papp=(dCr/dt)×Vr/(A×C0) Where dCr/dt is the cumulative concentration of compound in the receiver chamber as a function of time (μM/s); Vr is the solution volume in the receiver chamber (0.075 mL on the apical side, 0.25 mL on the basolateral side); A is the surface area for the transport, i.e. 0.0804 cm2 for the area of the monolayer; C0 is the initial concentration in the donor chamber (μM).
# The efflux ratio was calculated using the equation: Efflux Ratio=Papp(BA)/Papp(AB) Percent recovery was calculated using the equation: % Recovery=100×[(Vr×Cr)+(Vd×Cd)]/(Vd×C0) Where Vd is the volume in the donor chambers (0.075 mL on the apical side, 0.25 mL on the basolateral side); Cd and Cr are the final concentrations of transport compound in donor and receiver chambers, respectively.
# Percent of lucifer yellow in basolateral well is calculated using the equation:
# [formula] where RFUApical and RFUBasolateral are the relative fluorescence unit values of lucifer yellow in the apical and basolateral wells, respectively; VApical and VBasolateral are the volume of apical and basolateral wells (0.075 mL and 0.25 mL), respectively. Percent lucifer yellow should be less than 2.
# H3K27me3 in Hela cells = experiment: H3K27me3 Alpha Hela Assay (AlphaLISA); assay type: cell-based; settings: Homo sapiens, HeLa, 72 h
# Description: H3K27me3 Alpha Hela Assay (AlphaLISA). Ten different doses of each test compound (in a series of 3-fold dilutions) were plated in duplicate 384-well tissue culture treated plates (Catalog #6007680; Perkin Elmer, Waltham, Mass.). Hela cells grown in culture were trypsinized and counted using a Countess® cell counter (Catalog #C10281; Life Technologies, Grand Island, N.Y.). Cell were diluted to 67,000 cells per mL in10% DMEM (Catalog #10569-010 Life Technologies, Grand Island, N.Y.) and 15 μL (1,000 cells) were plated into each well using the Biotek MicroFlo™ Select Dispenser (BioTek Instruments, Inc. Vermont, USA),) of the 384-well plate. Plates were incubated at 37° C./5% CO2 for 72 hrs. One of the duplicate plates was processed for HeLa assay and the other for viability. 5 μL of Cell-Histone Lysis buffer (1×) (Catalog #AL009F1 Perkin Elmer; Waltham, Mass.) per well was added to the plate processed for AlphaLISA and the plate was incubated at RT for 30 minutes on a plate shaker with low speed (Model# 4625-Q Thermo Scientific; Waltham, Mass.). Then, 10 μL per well Histone Extraction buffer (catalog #AL009F2; Perkin Elmer; Waltham, Mass.) was added and the plate further incubated at RT for 20 min on plate shaker with low speed. Next, 10 μL of 5× mix of anti-K27me3 acceptor beads plus Biotinylated anti-Histone H3 (C-ter) Antibody (diluted to 3 nM final) (Catalog #AL118 Perkin Elmer; Waltham, Mass.) was added in each well. Dilution of the acceptor beads and anti-Histone H3 was done in 1× Histone Detection buffer (Catalog #AL009F3 Perkin Elmer; Waltham, Mass.) which was produced by diluting the 10× stock provided. The plate was sealed with an aluminum plate sealer and incubated at 23° C. for 60 min. Next, 10 μL 5× solution of Streptavidin Donor beads were added (Catalog #6760002 Perkin Elmer; Waltham, Mass.) (20 μg/mL final in 1× Histone Detection Buffer), =plate was sealed with Aluminum plate sealer and incubated at 23° C. for 30 min. The plates were then read using an EnVision-Alpha Reader (model #2104 Perkin Elmer; Waltham, Mass.). […]
GI50 (Karpas-422 cell lines) [nM],residence time (PRC2 containing wt EZH2 [1]) [min],IC50 (PRC2 containing wt EZH2 [2]) [nM],"Papp at 2.5 h, 2 μM [3] [×10⁻⁶ cm/s]","efflux ratio at 2.5 h, 2 μM [3]",EC50 (H3K27me3 in Hela cells) [nM],SMILES
12,1980,0.12,12,0.71,,"CSc1cc(C)[nH]c(=O)c1CNC(=O)c1cc(Cl)c2c(c1C)OC(C)(C1CCC(N3CC(F)(F)C3)CC1)O2 (single isomer, unassigned) [Example 7-Enantiomer 2]"
22,,0.054,1.1,3.6,3.6,CSc1nc(C)[nH]c(=O)c1CNC(=O)c1cc(Cl)c2c(c1C)O[C@@](C)([C@H]1CC[C@H](N(C)C)CC1)O2 [Example 5]
